We go through 28 compounds from patent US9938273B2 (Plexxikon Inc., priority 2015, dated 2018).

The structures appear in SMILES notation.

The target in the assay is T1, BA/F3-FLT3-ITD + D835Y cells (Homo sapiens, UniProt P36888, D835Y, cells depend on it, form not given).
T1 sequence (P36888 1-993 D835Y): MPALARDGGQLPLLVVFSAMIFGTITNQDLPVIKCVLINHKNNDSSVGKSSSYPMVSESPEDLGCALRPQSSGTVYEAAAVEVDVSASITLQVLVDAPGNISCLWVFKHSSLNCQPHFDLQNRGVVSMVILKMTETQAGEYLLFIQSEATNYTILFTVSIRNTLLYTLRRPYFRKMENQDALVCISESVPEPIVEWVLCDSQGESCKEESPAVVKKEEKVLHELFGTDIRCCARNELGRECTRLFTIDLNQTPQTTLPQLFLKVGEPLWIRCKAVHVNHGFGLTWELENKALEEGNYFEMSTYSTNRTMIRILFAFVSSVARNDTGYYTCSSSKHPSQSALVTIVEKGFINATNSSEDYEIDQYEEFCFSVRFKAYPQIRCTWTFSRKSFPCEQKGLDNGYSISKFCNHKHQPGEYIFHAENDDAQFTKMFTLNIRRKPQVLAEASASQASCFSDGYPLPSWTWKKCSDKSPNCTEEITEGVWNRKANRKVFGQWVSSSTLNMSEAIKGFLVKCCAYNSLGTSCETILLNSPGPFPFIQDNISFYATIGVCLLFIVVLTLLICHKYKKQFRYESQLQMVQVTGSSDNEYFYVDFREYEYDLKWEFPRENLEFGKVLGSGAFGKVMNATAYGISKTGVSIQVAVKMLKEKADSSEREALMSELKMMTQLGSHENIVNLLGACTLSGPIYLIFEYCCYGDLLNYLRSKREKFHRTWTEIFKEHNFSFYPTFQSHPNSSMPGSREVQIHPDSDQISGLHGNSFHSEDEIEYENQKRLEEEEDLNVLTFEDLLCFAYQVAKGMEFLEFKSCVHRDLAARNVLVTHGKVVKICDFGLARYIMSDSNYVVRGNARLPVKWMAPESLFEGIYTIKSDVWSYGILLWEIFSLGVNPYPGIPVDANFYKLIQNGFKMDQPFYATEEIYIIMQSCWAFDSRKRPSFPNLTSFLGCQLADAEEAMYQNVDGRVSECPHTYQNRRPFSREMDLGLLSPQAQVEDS
The assay is described as follows: Cell proliferation assay (CellTiter-Glo), engineered BA/F3 cells. In kind it is cell-based, murine. Conditions: BaF3 FLT3 ITD/D835Y cells, 3d-Growth; read-out: BaF3_FLT3 ITD/D835Y 3d-Growth: IC50. The essentials:
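Three-day growth at 37 °C, 5% CO2 under compound (1 μM top final, 1:3 dilutions, eight points, 0.2% DMSO), read as ATP luminescence by CellTiter-Glo for IC50. Cells: MOLM-14 with FLT3 ITD plus D835Y or F691L, and IL-3-deprived Ba/F3 transfected with FLT3 ITD/D835Y, 1×10^4 per well.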
For orientation: In ATP-based viability assays light output follows the ATP content of the culture.
As to `CNC1CCN(C(=O)c2cccc(-c3cnc4[nH]c(-c5ccc(F)cc5)cc4c3)n2)C1` (stereo not shown) [Compound P-0055, [6-[2-(4-fluorophenyl)-1H-pyrrolo[2,3-b]pyridin-5-yl]-2-pyridyl]-[3-(methylamino)pyrrolidin-1-yl]methanone], the GI50 was in the range of 0.0001 to 10 µM. On to `CN[C@@H]1CCN(C(=O)c2cccc(-c3cnc4[nH]c(-c5ccccc5)cc4c3)n2)C1` [Compound P-0058, [(3R)-3-(methylamino)pyrrolidin-1-yl]-[6-(2-phenyl-1H-pyrrolo[2,3-b]pyridin-5-yl)-2-pyridyl]methanone], for which the GI50 is 0.0001 to 10 µM.

Take `CNC1CCN(C(=O)c2cccc(-c3cnc4[nH]c(-c5ccnc(OC)c5)cc4c3)n2)C1` (stereo not shown) [Compound P-0060, [6-[2-(2-methoxy-4-pyridyl)-1H-pyrrolo[2,3-b]pyridin-5-yl]-2-pyridyl]-[3-(methylamino)pyrrolidin-1-yl]methanone]: the GI50 lay within 0.0001 to 10 µM. In the case of `CNC1CCN(C(=O)c2cccc(-c3cnc4[nH]c(-c5cnn(CC(F)(F)F)c5)cc4c3)n2)C1` (stereo not shown) [Compound P-0061, [3-(methylamino)pyrrolidin-1-yl]-[6-[2-[1-(2,2,2-trifluoroethyl)pyrazol-4-yl]-1H-pyrrolo[2,3-b]pyridin-5-yl]-2-pyridyl]methanone], the GI50 was in the range of 0.0001 to 10 µM. Take `CNC1CCN(C(=O)c2cccc(-c3cnc4[nH]c(-c5cccc(C#N)c5)cc4c3)n2)C1` (stereo not shown) [Compound P-0062, 3-[5-[6-[3-(methylamino)pyrrolidine-1-carbonyl]-2-pyridyl]-1H-pyrrolo[2,3-b]pyridin-2-yl]benzonitrile]: the GI50 was 0.0001 to 10 µM.

Regarding `CNC1CCN(S(=O)(=O)c2cccc(-c3cnc4[nH]c(-c5ccccc5)cc4c3)n2)C1` (stereo not shown) [Compound P-0063, N-methyl-1-[[6-(2-phenyl-1H-pyrrolo[2,3-b]pyridin-5-yl)-2-pyridyl]sulfonyl]pyrrolidin-3-amine], the GI50 is 0.0001 to 10 µM. For the compound `CN1CCC(NC(=O)c2cccc(-c3cnc4[nH]c(-c5ccccc5)cc4c3)n2)C1` (stereo not shown) [Compound P-0064, N-(1-methylpyrrolidin-3-yl)-6-(2-phenyl-1H-pyrrolo[2,3-b]pyridin-5-yl)pyridine-2-carboxamide], the GI50 is 0.0001 to 10 µM. `CNC1CCN(C(=O)c2cccc(-c3cnc4[nH]c(C5=CCC(C)(C)CC5)cc4c3)n2)C1` (stereo not shown) [Compound P-0070, [6-[2-(4,4-dimethylcyclohexen-1-yl)-1H-pyrrolo[2,3-b]pyridin-5-yl]-2-pyridyl]-[3-(methylamino)pyrrolidin-1-yl]methanone]: the GI50 lay in the range of 0.0001 to 10 µM. With `O=S(=O)(NC1CNC1)c1cccc(-c2cnc3[nH]c(-c4ccccc4)cc3c2)n1` [Compound P-0071, N-(azetidin-3-yl)-6-(2-phenyl-1H-pyrrolo[2,3-b]pyridin-5-yl)pyridine-2-sulfonamide], the GI50 was in the range of 0.0001 to 10 µM. As to `O=S(=O)(NC1CCNC1)c1cccc(-c2cnc3[nH]c(-c4ccccc4)cc3c2)n1` (stereo not shown) [Compound P-0072, 6-(2-phenyl-1H-pyrrolo[2,3-b]pyridin-5-yl)-N-pyrrolidin-3-yl-pyridine-2-sulfonamide], the GI50 fell in the range of 0.0001 to 10 µM. `NC1CCN(S(=O)(=O)c2cccc(-c3cnc4[nH]c(-c5ccccc5)cc4c3)n2)CC1` [Compound P-0073, 1-[[6-(2-phenyl-1H-pyrrolo[2,3-b]pyridin-5-yl)-2-pyridyl]sulfonyl]piperidin-4-amine]: the GI50 is 0.0001 to 10 µM. As to `CN1CC(NC(=O)c2cccc(-c3cnc4[nH]c(-c5ccccc5)cc4c3)n2)C1` [Compound P-0075, N-(1-methylazetidin-3-yl)-6-(2-phenyl-1H-pyrrolo[2,3-b]pyridin-5-yl)pyridine-2-carboxamide], the GI50 was 0.0001 to 10 µM.

With `NC1(C(F)(F)F)CCN(C(=O)c2cccc(-c3cnc4[nH]c(-c5ccccc5)cc4c3)n2)C1` (stereo not shown) [Compound P-0077, [3-amino-3-(trifluoromethyl)pyrrolidin-1-yl]-[6-(2-phenyl-1H-pyrrolo[2,3-b]pyridin-5-yl)-2-pyridyl]methanone], the GI50 was in the range of 0.0001 to 10 µM. Take `CC1(N)CCN(C(=O)c2cccc(-c3cnc4[nH]c(-c5ccccc5)cc4c3)n2)C1` (stereo not shown) [Compound P-0078, (3-amino-3-methyl-pyrrolidin-1-yl)-[6-(2-phenyl-1H-pyrrolo[2,3-b]pyridin-5-yl)-2-pyridyl]methanone]: the GI50 was in the range of 0.0001 to 10 µM. Regarding `CNCC1CCN(C(=O)c2cccc(-c3cnc4[nH]c(-c5ccccc5)cc4c3)n2)C1` (stereo not shown) [Compound P-0079, [3-(methylaminomethyl)pyrrolidin-1-yl]-[6-(2-phenyl-1H-pyrrolo[2,3-b]pyridin-5-yl)-2-pyridyl]methanone], the GI50 is 0.0001 to 10 µM. The result for `O=C(Nc1cccc(-c2cnc3[nH]c(-c4ccccc4)cc3c2)n1)C1CNC1` [Compound P-0084, N-[6-(2-phenyl-1H-pyrrolo[2,3-b]pyridin-5-yl)-2-pyridyl]azetidine-3-carboxamide] reads 0.0001 to 10 µM; that for `O=C(c1cccc(-c2cnc3[nH]c(-c4ccccc4)cc3c2)n1)N1CCC(NC2CC2)C1` (stereo not shown) [Compound P-0085, [3-(cyclopropylamino)pyrrolidin-1-yl]-[6-(2-phenyl-1H-pyrrolo[2,3-b]pyridin-5-yl)-2-pyridyl]methanone], 0.0001 to 10 µM; that for `O=S(=O)(NC1CCNCC1)c1cccc(-c2cnc3[nH]c(-c4ccccc4)cc3c2)n1` [Compound P-0086, 6-(2-phenyl-1H-pyrrolo[2,3-b]pyridin-5-yl)-N-(4-piperidyl)pyridine-2-sulfonamide], 0.0001 to 10 µM. For the compound `NC1CCC(NS(=O)(=O)c2cccc(-c3cnc4[nH]c(-c5ccccc5)cc4c3)n2)CC1` (stereo not shown) [Compound P-0088, N-(4-aminocyclohexyl)-6-(2-phenyl-1H-pyrrolo[2,3-b]pyridin-5-yl)pyridine-2-sulfonamide], the GI50 is 0.0001 to 10 µM. With `O=C(c1cccc(-c2cnc3[nH]c(-c4ccccc4)cc3c2)n1)N1CC(F)(F)C1` [Compound P-0090, (3,3-difluoroazetidin-1-yl)-[6-(2-phenyl-1H-pyrrolo[2,3-b]pyridin-5-yl)-2-pyridyl]methanone], the GI50 lay in the range of 0.0001 to 10 µM. The value for `COC1CN(C(=O)c2cccc(-c3cnc4[nH]c(-c5ccccc5)cc4c3)n2)C1` [Compound P-0091, (3-methoxyazetidin-1-yl)-[6-(2-phenyl-1H-pyrrolo[2,3-b]pyridin-5-yl)-2-pyridyl]methanone] was 0.0001 to 10 µM; that for `CC1(C#N)CCN(C(=O)c2cccc(-c3cnc4[nH]c(-c5ccccc5)cc4c3)n2)CC1` [Compound P-0094, 4-methyl-1-[6-(2-phenyl-1H-pyrrolo[2,3-b]pyridin-5-yl)pyridine-2-carbonyl]piperidine-4-carbonitrile] was 0.0001 to 10 µM. For the compound `COC1CCN(C(=O)c2cccc(-c3cnc4[nH]c(-c5ccccc5)cc4c3)n2)CC1` [Compound P-0098, (4-methoxy-1-piperidyl)-[6-(2-phenyl-1H-pyrrolo[2,3-b]pyridin-5-yl)-2-pyridyl]methanone], the GI50 was 0.0001 to 10 µM.

Consider `CS(=O)(=O)NC1CCN(C(=O)c2cccc(-c3cnc4[nH]c(-c5ccccc5)cc4c3)n2)C1` (stereo not shown) [Compound P-0101, N-[1-[6-(2-phenyl-1H-pyrrolo[2,3-b]pyridin-5-yl)pyridine-2-carbonyl]pyrrolidin-3-yl]methanesulfonamide], for which the GI50 is 0.0001 to 10 µM. Regarding `O=C(c1cccc(-c2cnc3[nH]c(-c4ccccc4)cc3c2)n1)N1CCC(N2CCOCC2)C1` (stereo not shown) [Compound P-0102, (3-morpholinopyrrolidin-1-yl)-[6-(2-phenyl-1H-pyrrolo[2,3-b]pyridin-5-yl)-2-pyridyl]methanone], the GI50 was in the range of 0.0001 to 10 µM. In the case of `O=C(c1cccc(-c2cnc3[nH]c(-c4ccccc4)cc3c2)n1)N1CCC(C(F)(F)F)C1` (stereo not shown) [Compound P-0103, [6-(2-phenyl-1H-pyrrolo[2,3-b]pyridin-5-yl)-2-pyridyl]-[3-(trifluoromethyl)pyrrolidin-1-yl]methanone], the GI50 was 0.0001 to 10 µM. `CN(C)C1CCN(C(=O)c2cccc(-c3cnc4[nH]c(-c5ccccc5)cc4c3)n2)C1` (stereo not shown) [Compound P-0104, [3-(dimethylamino)pyrrolidin-1-yl]-[6-(2-phenyl-1H-pyrrolo[2,3-b]pyridin-5-yl)-2-pyridyl]methanone]: the GI50 was in the range of 0.0001 to 10 µM. In the case of `N#CC1CCN(C(=O)c2cccc(-c3cnc4[nH]c(-c5ccc(F)cc5)cc4c3)n2)C1` (stereo not shown) [Compound P-0116, 1-[6-[2-(4-fluorophenyl)-1H-pyrrolo[2,3-b]pyridin-5-yl]pyridine-2-carbonyl]pyrrolidine-3-carbonitrile], the GI50 lay within 0.0001 to 10 µM.
